The record followed here is patent publication US20250361268A1, “NOVEL ANTI-INFLAMMATORY PEPTIDE AND USE THEREOF” (NOVACELL TECHNOLOGY INC., priority 2022, published 2025).

The EC50 is the concentration that produces a half-maximal response.

Test [1] addresses T1, FPR1 (Homo sapiens, UniProt P21462).
T1 sequence (P21462 1-350): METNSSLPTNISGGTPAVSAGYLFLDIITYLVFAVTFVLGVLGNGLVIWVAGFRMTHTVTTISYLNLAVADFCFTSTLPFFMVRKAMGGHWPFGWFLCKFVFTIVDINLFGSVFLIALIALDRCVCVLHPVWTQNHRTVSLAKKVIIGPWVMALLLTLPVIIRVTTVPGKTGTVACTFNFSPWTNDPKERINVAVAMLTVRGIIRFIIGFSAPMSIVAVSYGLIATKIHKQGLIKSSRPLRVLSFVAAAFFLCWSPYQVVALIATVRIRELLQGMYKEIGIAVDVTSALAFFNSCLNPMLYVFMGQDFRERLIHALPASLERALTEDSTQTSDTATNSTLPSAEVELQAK
The test is described as follows: Change in calcium activity by peptide, FPR1 activation effect. The class given is cell-based. To be noted: calcium activity (Fura-2), graded per Table 3, read-out: EC50 for [Ca^2+] FPR1. The method in brief: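 Calcium flux induced by peptide addition was monitored on a FlexStation 3 plate reader. Before this, cells seeded a day earlier (3×10^5/well) took up the Fura-2 dye for 1 h at 37 °C plus 30 min dark at room temperature.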

In test [2] the target is T2, FPR2 (Homo sapiens, UniProt P25090).
T2 construct: expressed in transfected cells; host or cells: RBL cells (RBL-FPR2)
T2 sequence (P25090 1-351): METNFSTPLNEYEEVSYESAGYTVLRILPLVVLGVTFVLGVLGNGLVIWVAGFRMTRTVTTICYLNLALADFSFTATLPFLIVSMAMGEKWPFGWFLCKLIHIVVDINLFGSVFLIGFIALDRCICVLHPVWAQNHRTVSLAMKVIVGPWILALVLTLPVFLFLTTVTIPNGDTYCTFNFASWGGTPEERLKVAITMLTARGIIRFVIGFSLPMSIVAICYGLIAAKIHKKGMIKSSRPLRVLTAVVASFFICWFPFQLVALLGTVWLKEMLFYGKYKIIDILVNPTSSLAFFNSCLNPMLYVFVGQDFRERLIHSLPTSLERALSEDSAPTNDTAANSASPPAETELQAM
Put plainly: Change in calcium activity by peptide (Fura-2) in RBL cells overexpressing FPR2. The class given is cell-based. To be noted: calcium activity (Fura-2), graded per Table 3, read-out: EC50 for [Ca^2+] FPR2. In short, it runs like this:
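Peptide-induced intracellular calcium change measured by Fura-2 fluorescence on a plate reader. Cells: RBL line overexpressing FPR2, dye-loaded 1 h at 37 °C then 30 min at RT in dark; peptides from 0.5 mM water/50% DMSO stocks, diluted in HBSS with 20 mM HEPES.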

Peptide text beside a SMILES is read from it.

Take `CSCC[C@@H](NC(=O)[C@@H]1CCCN1C(=O)[C@H](CCCCN)NC(=O)[C@H](Cc1ccc(O)cc1)NC(=O)[C@H](CCCCN)NC(=O)[C@H](Cc1c[nH]cn1)NC(C)=O)C(N)=O` [Peptide 147] (HELM PEPTIDE1{[ac].H.K.Y.K.P.[dM].[am]}$$$$V2.0): the figures for the half-maximal effective concentration (EC50) in test [1] and in test [2] were greater than 10000 nM and less than 10 nM, respectively.
Taken in the same sequence, the figures for `CSCC[C@@H](NC(=O)[C@H](Cc1ccc(O)cc1)NC(=O)[C@H](CCCCN)NC(=O)[C@H](Cc1ccc(O)cc1)NC(=O)[C@H](CCCNC(=N)N)NC(=O)[C@H](Cc1c[nH]c2ccccc12)NC(=O)[C@H](CCCNC(=N)N)NC(C)=O)C(N)=O` [Peptide 33] (HELM PEPTIDE1{[ac].R.W.R.Y.K.Y.[dM].[am]}$$$$V2.0) were greater than 10000 nM and less than 10 nM.
In the same order, the values of `CCCC(=O)N[C@@H](CCCNC(=N)N)C(=O)N[C@@H](Cc1c[nH]c2ccccc12)C(=O)N[C@@H](CCCNC(=N)N)C(=O)N[C@@H](Cc1ccc(O)cc1)C(=O)N[C@@H](CCCCN)C(=O)N1CCC[C@H]1C(=O)N[C@H](CCSC)C(N)=O` [Peptide 75] (HELM PEPTIDE1{[CCCC(=O)[*:2]].R.W.R.Y.K.P.[dM].[am]}$$$$V2.0) are 1000 to 10000 nM and less than 10 nM.
Taken in the same sequence, the figures for `CSCC[C@@H](NC(=O)[C@@H](NC(=O)[C@H](CCCCN)NC(=O)[C@H](Cc1ccc(O)cc1)NC(=O)[C@H](CCCNC(=N)N)NC(=O)[C@@H](N)Cc1c[nH]c2ccccc12)C(C)C)C(N)=O` [Peptide 3] (HELM PEPTIDE1{W.R.Y.K.V.[dM].[am]}$$$$V2.0) were greater than 10000 nM and less than 10 nM.
`CSCC[C@H](NC(=O)[C@H](Cc1c[nH]cn1)NC(C)=O)C(=O)N[C@@H](CCCCN)C(=O)N[C@@H](Cc1ccc(O)cc1)C(=O)N[C@@H](CCCCN)C(=O)N[C@H](C(=O)N[C@H](CCSC)C(N)=O)C(C)C` [Peptide 22] (HELM PEPTIDE1{[ac].H.M.K.Y.K.V.[dM].[am]}$$$$V2.0): the values for the EC50 in test [1] and in test [2] were greater than 10000 nM and less than 10 nM, respectively.
Taken in the same sequence, the figures for `CSCC[C@@H](NC(=O)[C@@H](NC(=O)[C@H](CCCCN)NC(=O)[C@H](Cc1ccc(O)cc1)NC(=O)[C@H](CCCCN)NC(=O)[C@H](Cc1c[nH]c2ccccc12)NC(=O)[C@H](CCCCN)NC(C)=O)C(C)C)C(N)=O` [Peptide 4] (HELM PEPTIDE1{[ac].K.W.K.Y.K.V.[dM].[am]}$$$$V2.0) were greater than 10000 nM and less than 10 nM.
Taken in the same sequence, the figures for `CCCC(=O)N[C@@H](CCSC)C(=O)N[C@@H](CCCNC(=N)N)C(=O)N[C@@H](Cc1ccc(O)cc1)C(=O)N[C@@H](CCCCN)C(=O)N1CCC[C@H]1C(=O)N[C@H](CCSC)C(N)=O` [Peptide 56] (HELM PEPTIDE1{[CCCC(=O)[*:2]].M.R.Y.K.P.[dM].[am]}$$$$V2.0) were greater than 10000 nM and less than 10 nM.
Taken in the same sequence, the figures for `CCCC(=O)N[C@@H](CCCNC(=N)N)C(=O)N[C@@H](CCSC)C(=O)N[C@@H](CCCNC(=N)N)C(=O)N[C@@H](Cc1ccc(O)cc1)C(=O)N[C@@H](CCCCN)C(=O)N1CCC[C@H]1C(=O)N[C@H](CCSC)C(N)=O` [Peptide 52] (HELM PEPTIDE1{[CCCC(=O)[*:2]].R.M.R.Y.K.P.[dM].[am]}$$$$V2.0) were greater than 10000 nM and less than 10 nM.
As for `CSCC[C@H](NC(=O)[C@H](CCCNC(=N)N)NC(C)=O)C(=O)N[C@@H](CCCNC(=N)N)C(=O)N[C@@H](Cc1ccc(O)cc1)C(=O)N[C@@H](Cc1ccc(O)cc1)C(=O)N[C@@H](Cc1ccc(O)cc1)C(=O)N[C@H](CCSC)C(N)=O` [Peptide 125] (HELM PEPTIDE1{[ac].R.M.R.Y.Y.Y.[dM].[am]}$$$$V2.0), the values for the EC50 in test [1] and in test [2] were greater than 10000 nM and less than 10 nM, respectively.
In the same order, the values of `CSCC[C@H](NC(=O)[C@@H]1CCCN1C(C)=O)C(=O)N[C@@H](CCCCN)C(=O)N[C@@H](Cc1ccc(O)cc1)C(=O)N[C@@H](CCCCN)C(=O)N[C@H](C(=O)N[C@H](CCSC)C(N)=O)C(C)C` [Peptide 26] (HELM PEPTIDE1{[ac].P.M.K.Y.K.V.[dM].[am]}$$$$V2.0) are greater than 10000 nM and less than 10 nM.
Taken in the same sequence, the figures for `CSCC[C@H](NC(=O)[C@@H]1CCCN1)C(=O)N[C@@H](CCCNC(=N)N)C(=O)N[C@@H](Cc1ccc(O)cc1)C(=O)N[C@@H](CCCCN)C(=O)N[C@@H](Cc1ccc(O)cc1)C(=O)N[C@H](CCSC)C(N)=O` [Peptide 46] (HELM PEPTIDE1{P.M.R.Y.K.Y.[dM].[am]}$$$$V2.0) were greater than 10000 nM and less than 10 nM.
In the same order, the values of `CCCC(=O)N[C@@H](CCCNC(=N)N)C(=O)N[C@@H](CCSC)C(=O)N[C@@H](CCCNC(=N)N)C(=O)N[C@@H](Cc1ccc(O)cc1)C(=O)N[C@@H](CCCCN)C(=O)N[C@H](C(=O)N[C@H](CCSC)C(N)=O)C(C)C` [Peptide 7] (HELM PEPTIDE1{[CCCC(=O)[*:2]].R.M.R.Y.K.V.[dM].[am]}$$$$V2.0) are greater than 10000 nM and less than 10 nM.
As for `CCCCCCCC(=O)N[C@@H](Cc1c[nH]cn1)C(=O)N[C@@H](CCSC)C(=O)N[C@@H](CCCNC(=N)N)C(=O)N[C@@H](Cc1ccc(O)cc1)C(=O)N[C@@H](CCCCN)C(=O)N1CCC[C@H]1C(=O)N[C@H](CCSC)C(N)=O` [Peptide 61] (HELM PEPTIDE1{[CCCCCCCC(=O)[*:2]].H.M.R.Y.K.P.[dM].[am]}$$$$V2.0), the concentration for a half-maximal effect (EC50) was greater than 10000 nM in test [1] and less than 10 nM in test [2].
Taken in the same sequence, the figures for `CSCC[C@@H](NC(=O)[C@H](Cc1ccc(O)cc1)NC(=O)[C@H](CCCCN)NC(=O)[C@H](Cc1ccc(O)cc1)NC(=O)[C@H](CCCNC(=N)N)NC(=O)[C@@H](N)Cc1c[nH]c2ccccc12)C(N)=O` [Peptide 35] (HELM PEPTIDE1{W.R.Y.K.Y.[dM].[am]}$$$$V2.0) were greater than 10000 nM and less than 10 nM.
In the case of `CSCC[C@@H](NC(=O)[C@H](Cc1ccc(O)cc1)NC(=O)[C@H](CC(C)C)NC(=O)[C@H](Cc1ccc(O)cc1)NC(=O)[C@H](CCCNC(=N)N)NC(=O)[C@H](Cc1c[nH]c2ccccc12)NC(=O)[C@@H](N)CCCNC(=N)N)C(N)=O` [Peptide 154] (HELM PEPTIDE1{R.W.R.Y.L.Y.[dM].[am]}$$$$V2.0), the results for the 50% effective concentration (EC50) in test [1] and in test [2] were greater than 10000 nM and less than 10 nM, respectively.
Taken in the same sequence, the figures for `CC[C@H](C)[C@H](N)C(=O)N[C@@H](CCCCN)C(=O)N[C@@H](Cc1ccccc1)C(=O)N[C@@H](CCCCN)C(=O)N[C@H](C(=O)N[C@H](CCSC)C(N)=O)C(C)C` [Peptide 132] (HELM PEPTIDE1{I.K.F.K.V.[dM].[am]}$$$$V2.0) were greater than 10000 nM and 11 to 100 nM.
Taken in the same sequence, the figures for `CCCCCCCC(=O)N[C@@H](CCCNC(=N)N)C(=O)N[C@@H](CCSC)C(=O)N[C@@H](CCCNC(=N)N)C(=O)N[C@@H](Cc1ccc(O)cc1)C(=O)N[C@@H](Cc1ccc(O)cc1)C(=O)N[C@H](C(=O)N[C@H](CCSC)C(N)=O)C(C)C` [Peptide 99] (HELM PEPTIDE1{[CCCCCCCC(=O)[*:2]].R.M.R.Y.Y.V.[dM].[am]}$$$$V2.0) were 1000 to 10000 nM and 11 to 100 nM.
For the compound `CCCC(=O)N1CCC[C@H]1C(=O)N[C@@H](CCSC)C(=O)N[C@@H](CCCNC(=N)N)C(=O)N[C@@H](Cc1ccc(O)cc1)C(=O)N[C@@H](CCCCN)C(=O)N1CCC[C@H]1C(=O)N[C@H](CCSC)C(N)=O` [Peptide 64] (HELM PEPTIDE1{[CCCC(=O)[*:2]].P.M.R.Y.K.P.[dM].[am]}$$$$V2.0), the results for the 50% effective concentration (EC50) in test [1] and in test [2] were greater than 10000 nM and less than 10 nM, respectively.
In the same order, the values of `CCCC(=O)N[C@@H](Cc1c[nH]cn1)C(=O)N[C@@H](CCCCN)C(=O)N[C@@H](Cc1ccc(O)cc1)C(=O)N[C@@H](CCCCN)C(=O)N1CCC[C@H]1C(=O)N[C@H](CCSC)C(N)=O` [Peptide 148] (HELM PEPTIDE1{[CCCC(=O)[*:2]].H.K.Y.K.P.[dM].[am]}$$$$V2.0) are greater than 10000 nM and less than 10 nM.
Taken in the same sequence, the figures for `CSCC[C@@H](NC(=O)[C@H](Cc1ccc(O)cc1)NC(=O)[C@H](Cc1ccccc1)NC(=O)[C@H](Cc1ccc(O)cc1)NC(=O)[C@H](CCCNC(=N)N)NC(=O)[C@H](Cc1c[nH]c2ccccc12)NC(=O)[C@@H](N)CCCNC(=N)N)C(N)=O` [Peptide 156] (HELM PEPTIDE1{R.W.R.Y.F.Y.[dM].[am]}$$$$V2.0) were greater than 10000 nM and less than 10 nM.
Taken in the same sequence, the figures for `CC[C@H](C)[C@H](N)C(=O)N[C@@H](CCCCN)C(=O)N[C@@H](Cc1ccccc1)C(=O)N[C@@H](Cc1c[nH]c2ccccc12)C(=O)N[C@@H](CCSC)C(=O)N[C@H](CCSC)C(N)=O` [Peptide 129] (HELM PEPTIDE1{I.K.F.W.M.[dM].[am]}$$$$V2.0) were greater than 10000 nM and 11 to 100 nM.
